From patent US5356915A, “Tetralones with pharmacological activity, compositions containing them” (J. Uriach & Cia. S.A., priority 1992, dated 1994)
pEC50, pIC50: −log10 of the molar value.

Legend:
[1] = system: arterial pressure in conscious spontaneously hypertensive rats; assay: Lowering of the arterial pressure in conscious spontaneously hypertensive rats (Test 2); assay type: in vivo, rat; conditions: conscious spontaneously hypertensive male rats, caudal artery, at least 4 animals
Protocol: Test 2: Lowering of the arterial pressure in conscious spontaneously hypertensive rats.
Spontaneously hypertensive male rats (b.w. 200-250 g) were used. Diastolic and systolic arterial pressure were measured at the caudal artery using a sphygnomanometer (Letica 5007 and 5007/4) attached to the animal's tail. To ensure rapid and reliable data, animals were placed on a heating plate at 37° C., with the aim of producing a vasodilatation that ensured better fixation of the rat tail to the transducer chamber. During the experiment, rats were conscious and fixed by a clamp. The test products were administered orally. Arterial pressure was measured every 60 minutes over a period of 4 hours and 10 minutes before the administration of the test compound. […]

[2] = system: isolated guinea pig tracheal spirals; assay: Direct relaxation of isolated guinea pig tracheal spirals (Test 3); conditions: Cavia porcellus; 50% of maximum relaxation (isoproterenol 1×10^-6 M = maximum); isolated guinea pig tracheae; 37° C., pH 7.4; mean of at least two experiments
Protocol: Test 3 -Direct relaxation of isolated guinea pig tracheal spirals.
Tracheae were extracted from male guinea pigs of (b.w. 400 g) that had been stunned and exanguinated. Then, tracheae were cut in zigzag sections and placed in an isolated organ bath (Letica) containing Krebs-Henseleit solution at 37° C., pH 7.4, continuously bubbled with carbogen (95% O2 and 5% CO2). The relaxation of the tracheae was measured using an isometric force transducer. The basal tension was 0.5 g. The test compounds were cumulatively added to the bath and the effective concentration that produced 50% of the maximum relaxation (EC50) was calculated. The maximum relaxation was taken to be the relaxation induced by isoproterenol at 1×10^-6 M. The experiment was repeated at least two times and the mean was calculated.

[3] = system: noradrenaline induced contractions in isolated rat portal vein; assay: Inhibition of noradrenaline induced contractions in isolated rat portal vein (Test 1); conditions: 0.5 h, noradrenaline 3 μM, 30 min incubation, 37° C., pH 7.2, mean of at least two experiments
Protocol: Test 1: Inhibition of noradrenaline induced contractions in isolated rat portal vein.
Portal vein was extracted from adult male rats (b.w. 200-250 g), that had been stunned and exanguinated. Vein strips were suspended in an isolated organ bath (Letica) containing a physiological saline solution continuously bubbled with 5% CO2, 95% O2 gas at 37° C., pH 7.2. Contractions were induced by noradrenaline (3 μM) and were reverted after thorough washing with physiological saline solution. Portal vein contraction was measured with an isometric force transducer at an initial tension of 1 g. After two equal contractions with noradrenaline, performed in order to measure the tissue's basal response, the test compounds were incubated for 30 minutes and a new contraction was induced. The concentration that produces a 50% inhibition (IC50) versus the basal response was calculated. The experiment was repeated at least two times and the mean was calculated.

Row | Structure (SMILES) | pEC50 [2] | pIC50 [3] | Pressure Drop ± SEM ([1]; 1 mg/Kg p.o. (footnote *)) | Pressure Drop ± SEM ([1]; 0.1 mg/Kg p.o.)
1 | CC1(C)CC(c2cccc[n+]2[O-])c2cc(C#N)ccc2C1=O (racemic) [Compound 12, (±)-2,2-Dimethyl-4-(N-oxide-2-pyridyl)-1-oxo-1,2,3,4-tetrahydronaphthalen-6-carbonitrile] | 5.52 | 6.70 | 95 ± 9 mm Hg | 
2 | CC1(C)C=C(c2cccc[n+]2[O-])c2cc(Cl)c(Cl)cc2C1=O [Compound 18] | 6.70 | 6.30 |  | 74 ± 42 mm Hg

Further lines, with some results ahead:

Row | pEC50 [2] | pIC50 [3] | Structure (SMILES) | Pressure Drop ± SEM ([1]; 1 mg/Kg p.o. (footnote *)) | Pressure Drop ± SEM ([1]; 0.1 mg/Kg p.o.)
3 | 6.70 | 6.10 | CC1(C)C=C(c2cccc[n+]2[O-])c2cc(Br)ccc2C1=O [Compound 4, 6-Bromo-1,2-dihydro-2,2-dimethyl-4-(N-oxide-2-pyridyl)naphthalen-1-one] |  | 53 ± 8 mm Hg
4 | 6.70 | 6.05 | CC1(C)C=C(c2cccc[n+]2[O-])c2cc(C#N)ccc2C1=O [Compound 10, 1,2-Dihydro-2,2-dimethyl-4-(N-oxide-2-pyridyl)-1-oxonaphthalen-6-carbonitrile] |  | 53 ± 15 mm Hg
5 | 7.00 | 6.22 | CC1(C)C=C(c2cccc[n+]2[O-])c2cc(C(F)(F)C(F)(F)F)ccc2C1=O [Compound 15, 1,2-Dihydro-2,2-dimethyl-4-(N-oxide-2-pyridyl)-6-pentafluoroethylnaphthalen-1-one] |  | 98 ± 20 mm Hg
